Measurements from patent US12570641B2, “Solid forms of a CDK4 inhibitor” (Pfizer Inc., priority 2020, dated 2026).

Key:
Format in all cases: physicochemical
[1] = Thermal stability by Differential Scanning Calorimetry (DSC)
Protocol: Modulated Differential scanning calorimetry (DSC) measurements were performed with Discovery DSC (TA instruments) equipped with a refrigerated cooling accessory. All the experiments were performed in standard/Tzero aluminum pans. The cell constant was determined using indium and temperature calibration was performed using indium and tin as standards. All the measurements were done under continuous dry nitrogen purge (50 mL/min). Approximately 1-5 mg of solid sample was weighed into a Tzero aluminum pan, sealed non-hermetically and heated from −40° C. to 220° C. at 10° C./min heating rate. The experimental data were analyzed using commercially available software (TA Universal Analysis 2000/Trios software, TA Instruments).
(§1) Thermal stability data were obtained through thermogravimetric analysis (TGA) according to General Method 4, and Differential Scanning Calorimetry (DSC) scan according to General Method 5A.

[2] = Thermal stability by thermogravimetric analysis (TGA); conditions: listed as Form 2 (monohydrate), monohydrate
Protocol: Thermogravimetric analysis was conducted using a Discovery TGA (TA instruments) thermogravimetric analyzer. Samples of approximately 10 mg were weighed into aluminum pans and heated from ambient ([…]) to 250° C. at 10° C./minute heating rate under nitrogen purge (10 mL/min for both sample chamber and balance).
as §1

[3] = Solid form of control and stressed samples by powder X-ray diffraction
Protocol: Powder X-ray diffraction analysis was conducted using a Bruker AXS D8 Endeavor diffractometer equipped with a copper radiation source. The divergence slit was set at 15 mm continuous illumination. Diffracted radiation was detected by a PSD-Lynx Eye detector, with the detector PSD opening set at 2.99 degrees. The X-ray tube voltage and amperage were set to 40 kV and 40 mA respectively. Data was collected at the copper (Cu) wavelength (CuKα=[…]) in the Theta-Theta goniometer from 3.0 to 40.0 degrees 2-Theta. A step size of 0.01 degrees and a step time of 1.0 second was used for Form 2, Form 6 and Form 8. A step size of 0.02 degrees and a step time of 0.3 seconds was used for Form 11. The antiscatter screen was set to a fixed distance of 1.5 mm. Samples were rotated during data collection. Samples were prepared by placing them in a silicon low background sample holder and rotated during collection. Data were collected using Bruker DIFFRAC Plus software and analysis was performed by EVA diffract plus software.
Powder X-ray diffraction was used to assess the solid form of the control and the stressed samples.

[4] = Solid-state photostability (2x ICH light exposure)
Protocol: Solid-state photostability of PF-07220060 monohydrate (Form 2) was evaluated after light exposure equivalent to 2× International Conference on Harmonisation (ICH) guidelines.

[5] = Competitive slurry experiments in 2-propanol/1% water; conditions: based on the competition slurry experiments
Protocol: Competitive slurry experiments were performed between Form 1 and Form 2 (Entry 1), and between Form 6 and Form 2 (Entry 2), in 2-propanol/1% water. Entry 1: […] The solids were collected with vacuum filtration and analyzed with PXRD. PXRD data was consistent with PF-07220060 monohydrate (Form 2). Entry 2: […] The solids were collected with vacuum filtration and analyzed with PXRD. PXRD data was consistent with PF-07220060 monohydrate (Form 2).

[6] = Moisture sorption (hygroscopicity), water sorption and desorption
Protocol: Water sorption and desorption studies were conducted on an automated vapor sorption analyzer (TA instruments Q5000 SA). The microbalance was calibrated using a 100 mg standard weight. The relative humidity (RH) sensor was calibrated at 5.0, 11.3, 32.8, 52.8, 75.3, and 84.3% RH (25° C.) using saturated salt solutions. Approximately 10-20 mg of the powder sample was placed in the quartz sample holder and dried at 3% RH at 60° C. The attainment of equilibrium was assumed when the weight change of the sample was <0.001 wt % in 5 min or by a maximum equilibration time of 300 minutes. […] Again, the attainment of equilibrium was assumed when the weight change of the sample was <0.001 wt % in 5 min or by a maximum equilibration time of 300 minutes. The weight gain at 60% RH is based on the weight after the initial drying step.
Water sorption and desorption studies of PF-07220060 monohydrate (Form 2), prepared as described in Example 2, were conducted according to General Method 6.
Water sorption and desorption studies of PF-07220060 hydrate (Form 1), prepared as described in Example 5B, were conducted according to General Method 6.
Comparative hygroscopicity experiments were performed using moisture sorption analysis according to General Method 6. PF-07220060 Forms 1, 2, 6, and 8 were evaluated using moisture sorption at 25° C., 60% RH. A form change at the completion of the run was not detected for any of the forms by PXRD.

[7] = UV/Fluor, 2x ICH light exposure

- thermal stability relative to Form 1 and Form 8 ([1]; TGA and DSC): improved thermal stability
- Thermal stability via DSC (° C.) ([1]; listed as Form 2 (monohydrate), monohydrate): 50 °C
- Thermal stability via TGA (° C.) [2]: 60 °C
- solid form change by PXRD ([3]; 40° C./5% RH for six weeks): disorder
- solid form change by PXRD ([3]; 40° C./75% RH for six weeks): No form change was detected
- solid form change by PXRD ([3]; 70° C./5% RH for one week): Slight disorder
- solid form change by PXRD ([3]; 70° C./75% RH for one week): No form change was detected
- solid form change by PXRD ([4]; 2×CH condition): no form change
- change in appearance compared to the dark control sample ([4]; 2×CH photostability sample): No significant change in appearance
- growth of individual impurities ([4]; 2×CH photostability samples): ≤ 0.2%
- total impurities ([4]; 2×CH photostability samples): ≤ 2.0%
- % impurity RRT 0.74 ([4]; Dark control (wrapped in foil)): NMT = 0.05%
- % impurity RRT 0.87 ([4]; Dark control (wrapped in foil)): 0.06%
- % impurity RRT 1.02 ([4]; Dark control (wrapped in foil)): NMT = 0.05%
- % impurity RRT 1.33 ([4]; Dark control (wrapped in foil)): 0.08%
- % impurity RRT 0.74 [4, 7]: 0.11%
- % impurity RRT 0.87 [4, 7]: 0.06%
- % impurity RRT 1.02 [4, 7]: 0.07%
- % impurity RRT 1.33 [4, 7]: 0.07%
- relative humidity above which the form is thermodynamically stable [5]: above 15 % RH
- form change at the completion of the moisture sorption run by PXRD ([6]; 25° C., 60% RH): not detected
- Weight gain (%) ([6]; 25 °C, RH 0%, listed as PF-07220060 monohydrate (Form 2), monohydrate): 0.00%
- Weight gain (%) ([6]; 25 °C, RH 10%, desorption, listed as PF-07220060 monohydrate (Form 2), monohydrate): 0.54%
- Weight gain (%) ([6]; 25 °C, RH 10%, sorption, listed as PF-07220060 monohydrate (Form 2), monohydrate): 0.45%
- Weight gain (%) ([6]; 25 °C, RH 20%, desorption, listed as PF-07220060 monohydrate (Form 2), monohydrate): 0.55%
- Weight gain (%) ([6]; 25 °C, RH 20%, sorption, listed as PF-07220060 monohydrate (Form 2), monohydrate): 0.49%
- Weight gain (%) ([6]; 25 °C, RH 30%, desorption, listed as PF-07220060 monohydrate (Form 2), monohydrate): 0.56%
- Weight gain (%) ([6]; 25 °C, RH 30%, sorption, listed as PF-07220060 monohydrate (Form 2), monohydrate): 0.51%
- Weight gain (%) ([6]; 25 °C, RH 40%, desorption, listed as PF-07220060 monohydrate (Form 2), monohydrate): 0.57%
- Weight gain (%) ([6]; 25 °C, RH 40%, sorption, listed as PF-07220060 monohydrate (Form 2), monohydrate): 0.52%
- Weight gain (%) ([6]; 25 °C, RH 50%, desorption, listed as PF-07220060 monohydrate (Form 2), monohydrate): 0.58%
- Weight gain (%) ([6]; 25 °C, RH 50%, sorption, listed as PF-07220060 monohydrate (Form 2), monohydrate): 0.54%
- Weight gain (%) ([6]; 25 °C, RH 60%, desorption, listed as PF-07220060 monohydrate (Form 2), monohydrate): 0.60%
- Weight gain (%) ([6]; 25 °C, RH 60%, sorption, listed as PF-07220060 monohydrate (Form 2), monohydrate): 0.56%
- Weight gain (%) ([6]; 25 °C, RH 70%, desorption, listed as PF-07220060 monohydrate (Form 2), monohydrate): 0.60%
- Weight gain (%) ([6]; 25 °C, RH 70%, sorption, listed as PF-07220060 monohydrate (Form 2), monohydrate): 0.57%
- Weight gain (%) ([6]; 25 °C, RH 80%, desorption, listed as PF-07220060 monohydrate (Form 2), monohydrate): 0.61%
- Weight gain (%) ([6]; 25 °C, RH 80%, sorption, listed as PF-07220060 monohydrate (Form 2), monohydrate): 0.59%
- Weight gain (%) ([6]; 25 °C, RH 90%, listed as PF-07220060 monohydrate (Form 2), monohydrate): 0.62%
- Weight gain (%) ([6]; 60 °C, RH 0% (initial drying step)): 0.00%
- Weight Gain (%) at 25° C., 60% RH ([6]; comparative summary of Forms 1, 2, 6 and 8, monohydrate): <1%
- hygroscopicity relative to Form 8 and Form 1 ([6]; moisture sorption at 25° C., 60% RH): reduced hygroscopicity
SMILES: CC(C)n1c(C(C)(C)O)nc2c(F)cc(-c3nc(N[C@@H]4CCOC[C@H]4O)ncc3Cl)cc21 [Form 2, 1,5-anhydro-3-({5-chloro-4-[4-fluoro-2-(2-hydroxypropan-2-yl)-1-(propan-2-yl)-1H-benzimidazol-6-yl]pyrimidin-2-yl}amino)-2,3-dideoxy-D-threo-pentitol monohydrate]
